Results published in ChEMBL document CHEMBL1201862, “PubChem BioAssay data set” (2004).
Blank lines part the entries; values can stand above or below the molecule they belong to. The source made the active and inactive calls. Cut-off read from the data, not from the text of the source, for most assays here: actives have a measured IC50 and inactives only a lower limit.

Tests used:
[1] = target: T1, Sentrin-specific protease 8 (Homo sapiens, UniProt Q96LD8); experiment: SENP8 protease inhibitors, SAR follow-up, biochemical, luminescence (AID 504501); format: functional
T1 sequence (Q96LD8 whole entry): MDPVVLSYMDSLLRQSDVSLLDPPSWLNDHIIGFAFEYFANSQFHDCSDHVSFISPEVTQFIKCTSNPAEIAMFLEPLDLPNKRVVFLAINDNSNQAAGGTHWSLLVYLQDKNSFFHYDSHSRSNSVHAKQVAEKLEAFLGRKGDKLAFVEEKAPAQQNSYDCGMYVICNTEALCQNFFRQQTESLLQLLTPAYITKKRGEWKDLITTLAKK

Caspase-3 [2] = target: T2, Caspase-3 (Homo sapiens, UniProt P42574); experiment: SAR Analysis of small molecule inhibitors of Sentrin-specific proteases (SENPs) using a Caspase-3 Selectivity assay. [Related pubchem assays (depositor defined):AID2540, AID2599, AID434973, AID489001]; format: functional
T2 sequence (P42574 whole entry): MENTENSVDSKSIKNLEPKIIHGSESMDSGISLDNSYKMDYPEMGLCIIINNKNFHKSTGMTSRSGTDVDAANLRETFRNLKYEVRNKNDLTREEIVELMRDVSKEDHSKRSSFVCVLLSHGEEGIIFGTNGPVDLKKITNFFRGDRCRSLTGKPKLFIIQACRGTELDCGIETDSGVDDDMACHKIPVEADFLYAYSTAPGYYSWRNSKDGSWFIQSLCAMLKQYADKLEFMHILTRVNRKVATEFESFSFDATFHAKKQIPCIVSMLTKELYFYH

[3] = target: T3, Sentrin-specific protease 6 (Homo sapiens, UniProt Q9GZR1); experiment: SAR Analysis of small molecule inhibitors of Sentrin-specific protease 6 (SENP6) using a Luminescent assay. [Related pubchem assays (depositor defined):AID2582, AID2599]; format: functional
T3 sequence (Q9GZR1 whole entry): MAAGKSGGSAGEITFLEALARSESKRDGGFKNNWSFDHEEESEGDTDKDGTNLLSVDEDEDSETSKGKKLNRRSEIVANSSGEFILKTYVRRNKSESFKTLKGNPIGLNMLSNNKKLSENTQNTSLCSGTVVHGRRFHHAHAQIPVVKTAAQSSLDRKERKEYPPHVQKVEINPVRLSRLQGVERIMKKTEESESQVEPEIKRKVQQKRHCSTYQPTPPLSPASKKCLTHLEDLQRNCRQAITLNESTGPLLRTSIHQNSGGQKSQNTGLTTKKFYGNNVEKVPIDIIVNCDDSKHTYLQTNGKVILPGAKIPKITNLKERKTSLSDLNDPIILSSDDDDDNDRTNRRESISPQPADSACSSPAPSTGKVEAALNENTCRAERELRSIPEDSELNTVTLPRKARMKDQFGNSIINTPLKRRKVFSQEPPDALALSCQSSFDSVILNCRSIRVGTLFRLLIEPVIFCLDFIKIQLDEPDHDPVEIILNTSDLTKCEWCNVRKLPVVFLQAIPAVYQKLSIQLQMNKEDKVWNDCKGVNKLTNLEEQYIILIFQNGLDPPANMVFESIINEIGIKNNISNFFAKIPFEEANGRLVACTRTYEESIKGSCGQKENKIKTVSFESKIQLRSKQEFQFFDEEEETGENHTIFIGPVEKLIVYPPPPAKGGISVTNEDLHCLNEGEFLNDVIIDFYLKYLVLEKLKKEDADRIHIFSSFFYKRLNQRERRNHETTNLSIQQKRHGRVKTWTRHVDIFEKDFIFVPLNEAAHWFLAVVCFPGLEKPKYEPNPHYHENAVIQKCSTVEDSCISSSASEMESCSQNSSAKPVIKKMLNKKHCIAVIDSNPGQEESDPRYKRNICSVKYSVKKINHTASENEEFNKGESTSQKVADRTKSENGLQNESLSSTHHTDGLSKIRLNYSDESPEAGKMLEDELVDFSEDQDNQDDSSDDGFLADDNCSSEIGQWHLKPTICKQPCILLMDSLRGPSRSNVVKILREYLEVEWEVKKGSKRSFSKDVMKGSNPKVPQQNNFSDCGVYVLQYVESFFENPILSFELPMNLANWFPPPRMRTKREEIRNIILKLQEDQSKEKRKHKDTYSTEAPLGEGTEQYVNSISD

[4] = target: T4, Sentrin-specific protease 7 (Homo sapiens, UniProt Q9BQF6); experiment: SENP7 protease inhibitors, SAR follow-up, biochemical, luminescence (AID 504497); format: functional
T4 sequence (Q9BQF6 whole entry): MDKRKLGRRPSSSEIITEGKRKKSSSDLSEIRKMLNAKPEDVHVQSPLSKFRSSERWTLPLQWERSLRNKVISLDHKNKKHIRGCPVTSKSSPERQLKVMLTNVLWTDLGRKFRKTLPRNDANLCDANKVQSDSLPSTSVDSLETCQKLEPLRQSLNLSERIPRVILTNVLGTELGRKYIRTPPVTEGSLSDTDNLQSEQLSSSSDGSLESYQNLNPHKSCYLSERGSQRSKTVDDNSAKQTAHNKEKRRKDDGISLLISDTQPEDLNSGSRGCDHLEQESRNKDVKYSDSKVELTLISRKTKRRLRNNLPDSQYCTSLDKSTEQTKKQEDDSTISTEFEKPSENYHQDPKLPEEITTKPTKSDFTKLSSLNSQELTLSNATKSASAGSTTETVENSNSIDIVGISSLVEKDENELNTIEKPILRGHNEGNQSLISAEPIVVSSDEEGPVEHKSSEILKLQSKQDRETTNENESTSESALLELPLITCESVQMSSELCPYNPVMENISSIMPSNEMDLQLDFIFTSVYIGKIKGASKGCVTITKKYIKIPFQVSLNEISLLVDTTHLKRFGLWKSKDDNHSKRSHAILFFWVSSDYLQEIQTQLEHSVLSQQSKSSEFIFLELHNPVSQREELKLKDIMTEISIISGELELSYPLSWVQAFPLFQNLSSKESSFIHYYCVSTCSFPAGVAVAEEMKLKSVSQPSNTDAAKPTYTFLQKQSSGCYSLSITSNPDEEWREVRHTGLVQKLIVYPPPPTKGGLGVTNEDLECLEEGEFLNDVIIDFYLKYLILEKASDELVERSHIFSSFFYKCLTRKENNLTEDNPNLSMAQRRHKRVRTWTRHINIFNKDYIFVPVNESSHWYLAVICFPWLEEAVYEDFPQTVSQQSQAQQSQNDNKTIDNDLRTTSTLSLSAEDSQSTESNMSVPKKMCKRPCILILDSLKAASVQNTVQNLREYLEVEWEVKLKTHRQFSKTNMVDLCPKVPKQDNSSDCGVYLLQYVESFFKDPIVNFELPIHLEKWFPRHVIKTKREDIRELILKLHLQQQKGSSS

INS1 = experiment: inhibitors of cytokine-induced nitrite release, dose response, cell-based, Griess absorbance, INS-1E, dry powder, set 2 (AID 488868); format: functional; settings: Rattus norvegicus
Caspase-3 [5] = target: T2, Caspase-3; experiment: caspase-3 inhibitors as off-family protease, SAR follow-up, selectivity assay for SENP protease inhibitor project, biochemical, luminescence, set 2 (AID 588599); format: functional
[6] = target: T1, Sentrin-specific protease 8; experiment: SENP8 protease inhibitors, SAR follow-up, biochemical, luminescence, set 2 (AID 588601); format: functional
[7] = target: T4, Sentrin-specific protease 7; experiment: SENP7 protease inhibitors, SAR follow-up, biochemical, luminescence, set 2 (AID 588600); format: functional
[8] = target: T3, Sentrin-specific protease 6; experiment: SENP6 protease inhibitors, SAR follow-up, biochemical, luminescence, set 2 (AID 588598); format: functional
[9] = Luminescence Cell-Based Dose Retest to Confirm Inhibitors of Cancer Stem Cells. [Related pubchem assays (depositor defined):AID2717, AID2721]; format: functional; settings: Homo sapiens
Insulin-degrading enzyme [10] = target: T5, Insulin-degrading enzyme (Homo sapiens, UniProt P14735); experiment: activators of recombinant IDE enzyme, dose response, counter-screen for IDE activator project, biochemical, fluorescence polarization (AID 588681)
T5 sequence (P14735 whole entry): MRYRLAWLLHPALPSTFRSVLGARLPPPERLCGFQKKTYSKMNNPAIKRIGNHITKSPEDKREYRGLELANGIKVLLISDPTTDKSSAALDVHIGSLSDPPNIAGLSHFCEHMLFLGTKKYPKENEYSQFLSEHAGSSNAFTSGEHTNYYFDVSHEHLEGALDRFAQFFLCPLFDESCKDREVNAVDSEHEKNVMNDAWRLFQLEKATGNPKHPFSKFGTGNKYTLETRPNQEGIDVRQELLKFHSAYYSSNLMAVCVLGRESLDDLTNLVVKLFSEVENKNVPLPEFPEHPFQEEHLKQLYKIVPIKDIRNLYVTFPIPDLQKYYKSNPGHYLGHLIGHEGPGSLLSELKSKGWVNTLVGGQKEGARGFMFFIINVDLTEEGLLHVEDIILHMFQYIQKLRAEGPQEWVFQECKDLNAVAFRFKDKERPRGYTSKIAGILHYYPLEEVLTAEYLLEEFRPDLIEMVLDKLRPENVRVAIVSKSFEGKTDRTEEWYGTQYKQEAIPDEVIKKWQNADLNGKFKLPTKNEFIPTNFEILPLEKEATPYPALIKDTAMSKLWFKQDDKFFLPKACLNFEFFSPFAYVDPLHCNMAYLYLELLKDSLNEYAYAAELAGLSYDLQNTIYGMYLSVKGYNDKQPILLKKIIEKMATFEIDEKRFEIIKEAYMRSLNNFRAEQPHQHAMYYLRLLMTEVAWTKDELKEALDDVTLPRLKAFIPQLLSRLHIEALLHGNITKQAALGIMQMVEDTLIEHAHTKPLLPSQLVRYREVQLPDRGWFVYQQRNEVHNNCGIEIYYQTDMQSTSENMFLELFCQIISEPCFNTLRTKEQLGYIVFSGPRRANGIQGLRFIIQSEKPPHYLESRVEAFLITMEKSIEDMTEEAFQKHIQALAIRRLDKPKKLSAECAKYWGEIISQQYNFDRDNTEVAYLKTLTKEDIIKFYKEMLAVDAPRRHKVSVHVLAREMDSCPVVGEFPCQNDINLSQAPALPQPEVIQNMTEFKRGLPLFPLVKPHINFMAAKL

Insulin-degrading enzyme [11] = target: T5, Insulin-degrading enzyme; experiment: activators of endogenous IDE in HEK cells, dose response, cell-based, fluorescence polarization (AID 588439); format: functional
HEK293 [12] = experiment: HEK cell cytotoxicity by LDH release, dose response, cytotoxicity control for IDE activator project, fluorescence, HEK cells (AID 588440); format: functional, cell-based; settings: Homo sapiens;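 note: cytotoxicity by LDH release measuring loss of membrane integrity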
HEK293 [13] = experiment: optical interference in Abeta FP readout, dose response, artefact control for IDE activator project, biochemical, fluorescence polarization (AID 588442); format: functional, cell-based; settings: Homo sapiens

IC50 (Caspase-3 [2]): 2.27 µM (active)
IC50 [3]: 1.81 µM (active)
IC50 [4]: 1.31 µM (active)
Structure (SMILES): CCC(=O)Nc1ccc2oc(-c3ccc(Cl)cc3)nc2c1
IC50 [1]: 1.76 µM (active)

Structure (SMILES): C[C@@H]1CN([C@@H](C)CO)C(=O)c2cccc(NC(=O)Nc3cccc4ccccc34)c2O[C@H]1CN(C)S(=O)(=O)c1cccs1
AC50 (INS1): 206 µM (active)

IC50 (Caspase-3 [5]): > 99 µM (inactive)
IC50 [7]: > 99 µM (inactive)
IC50 [8]: > 99 µM (inactive)
Structure (SMILES): O=C1CN(C(=O)C(=O)c2c[nH]c3ccccc23)c2ccccc2N1
IC50 [6]: > 99 µM (inactive)

Structure (SMILES): C=CCN1C(=O)/C(=C2\C(=O)Nc3ccccc32)S/C1=N/c1ccc(O)cc1
AC50 [9]: 4.14 µM (active)
EC50 (Insulin-degrading enzyme [10]): > 54.7 µM (inactive)
EC50 (Insulin-degrading enzyme [11]): 16.6 µM (inactive)
IC50 (HEK293 [12]): 26.6 µM (inactive)
EC50 (HEK293 [13]): > 54.7 µM (inactive)
